The values that follow come from patent US12612409B2, “Pyrrolopyrimidines as CFTR potentiators” (Cystic Fibrosis Foundation, priority 2016, dated 2026).

For assay [1], the target named is T1, recombinant F508del V470 CFTR in Fischer rat thyroid (FRT) cells (Homo sapiens, UniProt P13569, DEL508-508).
T1 construct: expressed in transfected cells
Put plainly: FRT ion flux assay of F508del CFTR potentiation. Conditions: FRT cells expressing F508del V470 CFTR, forskolin 20 uM, 27° C. pre-incubation. The assay is classed as cell-based. Summed up: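 Potentiation read as YFP quench ~21 s after iodide buffer addition, as second/initial fluorescence ratio normalised between DMSO (0%) and reference potentiator (100%).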

The target in assay [2] is T2, CFTR in F508del/F508del primary CF hBE cells (Homo sapiens, UniProt P13569, DEL508-508).
T2 construct: Primary cystic fibrosis human bronchial epithelial (CF hBE) cells were expanded and cultured; endogenous in cells; host or cells: primary CF human bronchial epithelial cells, genotype F508del/F508del
T2 sequence (P13569 with tags, fused parts or gaps DEL508-508): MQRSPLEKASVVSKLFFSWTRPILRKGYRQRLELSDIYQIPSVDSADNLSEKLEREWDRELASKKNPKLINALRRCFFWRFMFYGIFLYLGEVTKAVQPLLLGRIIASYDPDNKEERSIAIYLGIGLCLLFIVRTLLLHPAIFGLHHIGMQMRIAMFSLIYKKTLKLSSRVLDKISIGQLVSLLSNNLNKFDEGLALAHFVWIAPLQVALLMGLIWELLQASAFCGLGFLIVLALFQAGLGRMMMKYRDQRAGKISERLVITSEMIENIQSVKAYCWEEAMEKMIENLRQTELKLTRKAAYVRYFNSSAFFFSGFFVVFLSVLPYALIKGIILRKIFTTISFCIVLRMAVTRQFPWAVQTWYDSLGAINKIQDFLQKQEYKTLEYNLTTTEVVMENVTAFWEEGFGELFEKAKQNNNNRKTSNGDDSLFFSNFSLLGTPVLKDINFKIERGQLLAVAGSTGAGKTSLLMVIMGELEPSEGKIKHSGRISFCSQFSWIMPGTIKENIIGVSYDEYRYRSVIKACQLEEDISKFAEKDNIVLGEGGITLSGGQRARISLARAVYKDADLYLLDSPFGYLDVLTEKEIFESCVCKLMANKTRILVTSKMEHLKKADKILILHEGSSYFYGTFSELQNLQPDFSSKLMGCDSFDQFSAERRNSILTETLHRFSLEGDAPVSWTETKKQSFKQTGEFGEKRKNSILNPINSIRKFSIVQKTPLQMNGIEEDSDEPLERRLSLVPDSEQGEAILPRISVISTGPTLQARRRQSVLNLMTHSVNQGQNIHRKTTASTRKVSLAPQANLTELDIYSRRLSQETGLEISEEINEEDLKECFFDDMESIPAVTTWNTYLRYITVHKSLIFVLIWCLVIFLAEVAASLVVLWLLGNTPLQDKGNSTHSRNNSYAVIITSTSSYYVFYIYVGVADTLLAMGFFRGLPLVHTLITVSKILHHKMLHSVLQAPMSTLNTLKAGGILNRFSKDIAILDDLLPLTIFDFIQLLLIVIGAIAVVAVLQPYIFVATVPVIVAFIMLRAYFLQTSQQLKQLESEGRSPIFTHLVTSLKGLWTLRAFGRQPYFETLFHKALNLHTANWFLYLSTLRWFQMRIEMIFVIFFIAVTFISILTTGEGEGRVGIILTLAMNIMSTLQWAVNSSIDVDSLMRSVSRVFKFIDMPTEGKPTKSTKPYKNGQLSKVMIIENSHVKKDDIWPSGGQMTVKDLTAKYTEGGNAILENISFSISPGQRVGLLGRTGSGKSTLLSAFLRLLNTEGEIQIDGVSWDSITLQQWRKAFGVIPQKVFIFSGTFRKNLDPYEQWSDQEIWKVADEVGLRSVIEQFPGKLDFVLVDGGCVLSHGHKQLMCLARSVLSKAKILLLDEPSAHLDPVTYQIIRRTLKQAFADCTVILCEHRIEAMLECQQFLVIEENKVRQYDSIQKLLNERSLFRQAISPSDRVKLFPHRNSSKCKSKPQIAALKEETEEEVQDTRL
Put plainly: Ussing chamber electrophysiology assay of CFTR potentiation in F508del/F508del CF bronchial epithelial cells (27° C.). Format: cell-based. In short, it runs like this:
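Short-circuit current was recorded under zero-voltage clamp across primary CF bronchial epithelia cultured >30 days at air/liquid interface, bathed apically and basolaterally in HEPES-buffered saline. Sequential additions: amiloride (30 uM), forskolin (10 uM), compound at 4 increasing levels, CFTRinh-172 (20 uM). Responses normalised between DMSO (0%) and maximal positive-control potentiator (100%).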

T1 sequence (P13569 with tags, fused parts or gaps DEL508-508): as above

Take `CC(c1cnc(-c2ccccc2F)[nH]1)n1cc(-c2cnc(N(C)C)nc2)c2c(N)ncnc21` (stereo not drawn) [Example 67, 5-[2-(Dimethylamino)pyrimidin-5-yl]-7-{1-[2-(2-fluorophenyl)-1H-imidazol-5-yl]ethyl}-7H-pyrrolo[2,3-d]pyrimidin-4-amine]: the concentration giving a half-maximal response (EC50) in assay [1] turned out to be 54.6 nM; in assay [2], 142 nM.

`CC(c1cn(-c2ccccc2F)nn1)n1cc(-c2ccc(OC(F)F)cc2)c2c(N)ncnc21` (stereo not drawn) [Example 89, 5-[4-(Difluoromethoxy)phenyl]-7-{1-[1-(2-fluorophenyl)-1H-1,2,3-triazol-4-yl]ethyl}-7H-pyrrolo[2,3-d]pyrimidin-4-amine]: the EC50 worked out at 73.8 nM in assay [1] and 35.9 nM in assay [2].

With `CC(c1cn(-c2ccccc2F)nn1)n1cc(-c2ccccc2)c2c(N)ncnc21` (stereo not drawn) [Example 94, 7-{1-[1-(2-Fluorophenyl)-1H-1,2,3-triazol-4-yl]ethyl}-5-phenyl-7H-pyrrolo[2,3-d]pyrimidin-4-amine], the EC50 in assay [1] is 361 nM; in assay [2] it was 140 nM.

Consider `CCC(c1cn(-c2cc(F)ccc2F)nn1)n1cc(-c2cc(F)cnc2OC)c2c(N)ncnc21` (single isomer, unassigned; enantiomer 2) [Example 172, 7-{1-[1-(2,5-Difluorophenyl)-1H-1,2,3-triazol-4-yl]propyl}-5-(5-fluoro-2-methoxypyridin-3-yl)-7H-pyrrolo[2,3-d]pyrimidin-4-amine, enantiomer 2], for which the 50% effective concentration (EC50) in assay [1] was 203 nM; in assay [2], 77.6 nM.

With `COc1nc(C(F)(F)F)ncc1-c1cn(C(C)c2cn(-c3ccccc3F)nn2)c2ncnc(N)c12` (stereo not drawn) [Example 249, 7-{1-[1-(2-Fluorophenyl)-1H-1,2,3-triazol-4-yl]ethyl}-5-[4-methoxy-2-(trifluoromethyl)pyrimidin-5-yl]-7H-pyrrolo[2,3-d]pyrimidin-4-amine], the EC50 in assay [1] turned out to be 12.2 nM; in assay [2], 27.7 nM.

On to `CCC(c1cn(-c2ccccc2F)nn1)n1cc(-c2cc[nH]n2)c2c(N)ncnc21` (single isomer, unassigned; enantiomer 2) [Example 148, 7-{1-[1-(2-Fluorophenyl)-1H-1,2,3-triazol-4-yl]propyl}-5-(1H-pyrazol-3-yl)-7H-pyrrolo[2,3-d]pyrimidin-4-amine, enantiomer 2], for which the EC50 in assay [1] is 12.4 nM; in assay [2], 25.7 nM.

`CC(c1cn(-c2ccccc2F)nn1)n1cc(C2CCC2)c2c(N)ncnc21` (single isomer, unassigned) [Example 110, 5-Cyclobutyl-7-{1-[1-(2-fluorophenyl)-1H-1,2,3-triazol-4-yl]ethyl}-7H-pyrrolo[2,3-d]pyrimidin-4-amine]: the EC50 worked out at 2.65 nM in assay [1] and 6.21 nM in assay [2].

With `CCC(c1cn(-c2cc(F)ccc2F)nn1)n1cc(-c2cncnc2OC)c2c(N)ncnc21` (single isomer, unassigned; enantiomer 1) [Example 307, (+) 7-{1-[1-(2,5-Difluorophenyl)-1H-1,2,3-triazol-4-yl]propyl}-5-(4-methoxypyrimidin-5-yl)-7H-pyrrolo[2,3-d]pyrimidin-4-amine, enantiomer 1], the EC50 was 45.8 nM in assay [1] and 55.4 nM in assay [2].

In the case of `CCC(c1cn(-c2cccc(F)c2F)nn1)n1c(C#N)c(-c2cnc(C(F)(F)F)nc2)c2c(N)ncnc21` (single isomer, unassigned) [Example 19, 4-amino-7-{1-[1-(2,3-difluorophenyl)-1H-1,2,3-triazol-4-yl]propyl}-5-[2-(trifluoromethyl)pyrimidin-5-yl]-7H-pyrrolo[2,3-d] pyrimidine-6-carbonitrile], the EC50 in assay [1] was determined as 69.6 nM; in assay [2], 34.7 nM.

In the case of `Nc1ncnc2c1c(C1CC1)cn2Cc1cnn(-c2ccccc2F)c1` [Example 317, 5-Cyclopropyl-7-{[1-(2-fluorophenyl)-1H-pyrazol-4-yl]methyl}-7H-pyrrolo[2,3-d]pyrimidin-4-amine], the 50% effective concentration (EC50) amounted to 129 nM in assay [1] and 87 nM in assay [2].

Turning to `COCC1CC1c1cn(Cc2cn(-c3ccccc3F)nn2)c2ncnc(N)c12` (stereo not drawn) [Example 290, 7-{[1-(2-Fluorophenyl)-1H-1,2,3-triazol-4-yl]methyl}-5-[2-(methoxymethyl)cyclopropyl]-7H-pyrrolo[2,3-d]pyrimidin-4-amine], the EC50 came to 669 nM in assay [1] and 997 nM in assay [2].

On to `CCC(c1cn(-c2ccccc2)nn1)n1cc(-c2cncnc2OC)c2c(N)ncnc21` (single isomer, unassigned; enantiomer 2) [Example 128, (+) 5-(4-Methoxypyrimidin-5-yl)-7-[1-(1-phenyl-1H-1,2,3-tnazol-4-yl)propyl]-7H-pyrrolo[2,3-d]pyrimidin-4-amine, enantiomer 2], for which the EC50 in assay [1] is 19.1 nM; in assay [2], 42.6 nM.

In the case of `CCC(c1cn(-c2ccc(F)cc2F)nn1)n1cc(-c2cnc(C(F)F)nc2)c2c(N)ncnc21` (single isomer, unassigned; enantiomer 2) [Example 168, 5-[2-(Difluoromethyl)pyrimidin-5-yl]-7-{1-[1-(2,4-difluorophenyl)-1H-1,2,3-triazol-4-yl]propyl}-7H-pyrrolo[2,3-d]pyrimidin-4-amine, enantiomer 2], the figures for the EC50 in assay [1] and in assay [2] were 2950 nM and 2330 nM, respectively.

Turning to `CC(c1cn(-c2ccccc2F)nn1)n1cc(-c2ccc(OC3CC3)cc2)c2c(N)ncnc21` (single isomer, unassigned; enantiomer 1) [Example 117, (+) 5-[4-(Cyclopropyloxy)phenyl]-7-{1-[1-(2-fluorophenyl)-1H-1,2,3-triazol-4-yl]ethyl}-7H-pyrrolo[2,3-d]pyrimidin-4-amine, enantiomer 1], the EC50 in assay [1] came out at 58.8 nM; in assay [2], 49.3 nM.

For the compound `CCC(c1cn(-c2ccccc2F)nn1)n1cc(-c2cnco2)c2c(N)ncnc21` (stereo not drawn) [Example 225, 7-{1-[1-(2-Fluorophenyl)-1H-1,2,3-triazol-4-yl]propyl}-5-(1,3-oxazol-5-yl)-7H-pyrrolo[2,3-d]pyrimidin-4-amine], the EC50 in assay [1] was 37.3 nM; in assay [2] it was 93.2 nM.

In the case of `Nc1ncnc2c1c(-c1ccc(Cl)cc1)cn2Cc1cnn(-c2ccccc2F)c1` [Example 262, 5-(4-Chlorophenyl)-7-{[1-(2-fluorophenyl)-1H-pyrazol-4-yl]methyl}-7H-pyrrolo[2,3-d]pyrimidin-4-amine], the EC50 in assay [1] was 313 nM; in assay [2], 60.2 nM.

Turning to `CCC(c1cn(-c2cccc(F)c2F)nn1)n1cc(-c2cnc(C(F)(F)F)nc2)c2c(N)ncnc21` (single isomer, unassigned) [Example 187, 7-{1-[1-(2,3-Difluorophenyl)-1H-1,2,3-triazol-4-yl]propyl}-5-[2-(trifluoromethyl)pyrimidin-5-yl]-7H-pyrrolo[2,3-d]pyrimidin-4-amine], the EC50 in assay [1] was found to be 13.2 nM; in assay [2], 13 nM.

With `COc1ncccc1-c1cn(C(c2cn(-c3ccccc3F)nn2)C2CC2)c2ncnc(N)c12` (stereo not drawn) [Example 297, 7-{Cyclopropyl[1-(2-fluorophenyl)-1H-1,2,3-triazol-4-yl]methyl}-5-(2-methoxypyridin-3-yl)-7H-pyrrolo[2,3-d]pyrimidin-4-amine], the EC50 in assay [1] worked out at 57.5 nM; in assay [2], 40.1 nM.

For `CCC(c1nnn(-c2ccc(F)cc2F)c1C)n1cc(-c2cnc(C(F)(F)F)nc2)c2c(N)ncnc21` (single isomer, unassigned) [Example 189], the concentration giving a half-maximal response (EC50) came to 6.72 nM in assay [1] and 10.2 nM in assay [2].

As to `Cc1c(C(C)n2c(C#N)c(-c3cnc(C(F)(F)F)nc3)c3c(N)ncnc32)nnn1-c1ccccc1F` (single isomer, unassigned) [Example 12, 4-amino-7-(1-(1-(2-fluorophenyl)-5-methyl-1H-1,2,3-triazol-4-yl)ethyl)-5-(2-(trifluoromethyl)pyrimidin-5-yl)-7H-pyrrolo[2,3-d]pyrimidine-6-carbonitrile], the results for the EC50 in assay [1] and in assay [2] were 6.66 nM and 22.5 nM, respectively.

Regarding `CC(c1cc(-c2ccccc2F)no1)n1cc(-c2ccc(Cl)cc2)c2c(N)ncnc21` (single isomer, unassigned; enantiomer 1) [Example 181, (+)-5-(4-Chlorophenyl)-7-{1-[3-(2-fluorophenyl)-1,2-oxazol-5-yl]ethyl}-7H-pyrrolo[2,3-d]pyrimidin-4-amine, enantiomer 1], the half-maximal effective concentration (EC50) turned out to be 538 nM in assay [1] and 24.5 nM in assay [2].

Consider `COc1ncncc1-c1cn(C(c2cn(-c3ccccc3F)nn2)C2CC2)c2ncnc(N)c12` (stereo not drawn) [Example 243, 7-{Cyclopropyl[1-(2-fluorophenyl)-1H-1,2,3-triazol-4-yl]methyl}-5-(4-methoxypyrimidin-5-yl)-7H-pyrrolo[2,3-d]pyrimidin-4-amine], for which the results for the EC50 in assay [1] and in assay [2] were 56.2 nM and 95.3 nM, respectively.

`CC(c1cn(-c2ccccc2F)nn1)n1cc(C2CC2)c2c(N)ncnc21` (single isomer, unassigned) [Example 109, 5-Cyclopropyl-7-{1-[1-(2-fluorophenyl)-1H-1,2,3-triazol-4-yl]ethyl}-7H-pyrrolo[2,3-d]pyrimidin-4-amine]: the values for the EC50 in assay [1] and in assay [2] were 36.5 nM and 68.6 nM, respectively.

With `Cc1ccccc1-c1cc(C(C)n2cc(-c3ccc(Cl)cc3)c3c(N)ncnc32)on1` (stereo not drawn) [Example 266, 5-(4-Chlorophenyl)-7-{1-[3-(2-methylphenyl)-1,2-oxazol-5-yl]ethyl}-7H-pyrrolo[2,3-d]pyrimidin-4-amine], the figures for the concentration giving a half-maximal response (EC50) in assay [1] and in assay [2] were 138 nM and 253 nM, respectively.

A word on the EC50: it is the concentration that produces a half-maximal response.
